“And” between values parts separate entries of the source, which are not always exact repeats. Equal values may be shown once.
Columns and labels:
MOR = biological target: T1, MOR (Homo sapiens, UniProt P35372); test: BRET-Gi1 protein activation; format: cell-based
T1 construct: expressed in transfected cells; host or cells: HEK293

human KOR (Gi1) [1] = biological target: T2, human KOR (Gi1) (Homo sapiens, UniProt P41145, T94V); test: cell-based; details: HEK-293T
T2 construct: expressed in transfected cells; host or cells: HEK293T

human KOR (Gi1) [2] = biological target: T3, human KOR (Gi1) (Homo sapiens, UniProt P41145, K200A); test: cell-based; details: HEK-293T
T3 construct: expressed in transfected cells; host or cells: HEK293T

human KOR (Gi1) [3] = biological target: T4, human KOR (Gi1) (Homo sapiens, UniProt P41145, Q115N); test: cell-based; details: HEK-293T
T4 construct: expressed in transfected cells; host or cells: HEK293T

human KOR (Gi1) [4] = biological target: T5, human KOR (Gi1) (Homo sapiens, UniProt P41145, F283A); test: cell-based; details: HEK-293T
T5 construct: expressed in transfected cells; host or cells: HEK293T

human KOR (Gi1) [5] = biological target: T6, human KOR (Gi1) (Homo sapiens, UniProt P41145, Y320L); test: cell-based; details: HEK-293T
T6 construct: expressed in transfected cells; host or cells: HEK293T

human KOR (Gi1) [6] = biological target: T7, human KOR (Gi1) (Homo sapiens, UniProt P41145, L253A); test: cell-based; details: HEK-293T
T7 construct: expressed in transfected cells; host or cells: HEK293T

human KOR (Gi1) [7] = biological target: T8, human KOR (Gi1) (Homo sapiens, UniProt P41145, Y139L); test: cell-based; details: HEK-293T
T8 construct: expressed in transfected cells; host or cells: HEK293T

human KOR (Gi1) [8] = biological target: T9, human KOR (Gi1) (Homo sapiens, UniProt P41145, R257A); test: cell-based; details: HEK-293T
T9 construct: expressed in transfected cells; host or cells: HEK293T

human KOR (Gi1) [9] = biological target: T10, human KOR (Gi1) (Homo sapiens, UniProt P41145, D266A); test: cell-based; details: HEK-293T
T10 construct: expressed in transfected cells; host or cells: HEK293T

human KOR (Gi1) [10] = biological target: T11, human KOR (Gi1) (Homo sapiens, UniProt P41145, R170A); test: cell-based; details: HEK-293T
T11 construct: expressed in transfected cells; host or cells: HEK293T

human KOR (Gi1) [11] = biological target: T12, human KOR (Gi1) (Homo sapiens, UniProt P41145, F114L); test: cell-based; details: HEK-293T
T12 construct: expressed in transfected cells; host or cells: HEK293T

human KOR (Gi1) [12] = biological target: T13, human KOR (Gi1) (Homo sapiens, UniProt P41145); test: cell-based
T13 construct: expressed in transfected cells; host or cells: HEK293T

human KOR (Gi1) [13] = biological target: T14, human KOR (Gi1) (Homo sapiens, UniProt P41145, D105A); test: cell-based; details: HEK-293T
T14 construct: expressed in transfected cells; host or cells: HEK293T

human KOR (Gi1) [14] = biological target: T15, human KOR (Gi1) (Homo sapiens, UniProt P41145, N326A); test: cell-based; details: HEK-293T
T15 construct: expressed in transfected cells; host or cells: HEK293T

human KOR (Gi1) [15] = biological target: T16, human KOR (Gi1) (Homo sapiens, UniProt P41145, R271A); test: cell-based; details: HEK-293T
T16 construct: expressed in transfected cells; host or cells: HEK293T

human KOR (Gi1) [16] = biological target: T17, human KOR (Gi1) (Homo sapiens, UniProt P41145, D334A); test: cell-based; details: HEK-293T
T17 construct: expressed in transfected cells; host or cells: HEK293T

human KOR (Gi1) [17] = biological target: T18, human KOR (Gi1) (Homo sapiens, UniProt P41145, D155A); test: cell-based; details: HEK-293T
T18 construct: expressed in transfected cells; host or cells: HEK293T

human KOR (Gi1) [18] = biological target: T19, human KOR (Gi1) (Homo sapiens, UniProt P41145, G319L); test: cell-based; details: HEK-293T
T19 construct: expressed in transfected cells; host or cells: HEK293T

human KOR (Gi1) [19] = biological target: T20, human KOR (Gi1) (Homo sapiens, UniProt P41145, N141A); test: cell-based; details: HEK-293T
T20 construct: expressed in transfected cells; host or cells: HEK293T

human KOR (Gi1) [20] = biological target: T21, human KOR (Gi1) (Homo sapiens, UniProt P41145, R274A); test: cell-based; details: HEK-293T
T21 construct: expressed in transfected cells; host or cells: HEK293T

KOR = format: cell-based, human
human KOR (Gz) [21] = biological target: T22, human KOR (Gz) (Homo sapiens, UniProt P41145, R271A); test: cell-based
T22 construct: expressed in transfected cells; host or cells: HEK293T

human KOR (Gz) [22] = biological target: T23, human KOR (Gz) (Homo sapiens, UniProt P41145, N326A); test: cell-based
T23 construct: expressed in transfected cells; host or cells: HEK293T

human KOR (Gz) [23] = biological target: T24, human KOR (Gz) (Homo sapiens, UniProt P41145, Y139L); test: cell-based
T24 construct: expressed in transfected cells; host or cells: HEK293T

human KOR (Gz) [24] = biological target: T25, human KOR (Gz) (Homo sapiens, UniProt P41145, F283A); test: cell-based
T25 construct: expressed in transfected cells; host or cells: HEK293T

human KOR (β-arrestin 2) [25] = biological target: T26, human KOR (β-arrestin 2) (Homo sapiens, UniProt P41145, G319L); test: cell-based; details: HEK-293T
T26 construct: expressed in transfected cells; host or cells: HEK293T

human KOR (β-arrestin 2) [26] = biological target: T27, human KOR (β-arrestin 2) (Homo sapiens, UniProt P41145, R257A); test: cell-based; details: HEK-293T
T27 construct: expressed in transfected cells; host or cells: HEK293T

human KOR (β-arrestin 2) [27] = biological target: T28, human KOR (β-arrestin 2) (Homo sapiens, UniProt P41145, E297A); test: cell-based; details: HEK-293T
T28 construct: expressed in transfected cells; host or cells: HEK293T

human KOR (β-arrestin 2) [28] = biological target: T29, human KOR (β-arrestin 2) (Homo sapiens, UniProt P41145, D155A); test: cell-based; details: HEK-293T
T29 construct: expressed in transfected cells; host or cells: HEK293T

human KOR (β-arrestin 2) [29] = biological target: T30, human KOR (β-arrestin 2) (Homo sapiens, UniProt P41145, K227A); test: cell-based; details: HEK-293T
T30 construct: expressed in transfected cells; host or cells: HEK293T

human KOR (β-arrestin 2) [30] = biological target: T31, human KOR (β-arrestin 2) (Homo sapiens, UniProt P41145, F283A); test: cell-based; details: HEK-293T
T31 construct: expressed in transfected cells; host or cells: HEK293T

human KOR (β-arrestin 2) [31] = biological target: T32, human KOR (β-arrestin 2) (Homo sapiens, UniProt P41145, T94V); test: cell-based; details: HEK-293T
T32 construct: expressed in transfected cells; host or cells: HEK293T

human KOR (β-arrestin 2) [32] = biological target: T33, human KOR (β-arrestin 2) (Homo sapiens, UniProt P41145, F114L); test: cell-based; details: HEK-293T
T33 construct: expressed in transfected cells; host or cells: HEK293T

human KOR (β-arrestin 2) [33] = biological target: T34, human KOR (β-arrestin 2) (Homo sapiens, UniProt P41145, R170A); test: cell-based; details: HEK-293T
T34 construct: expressed in transfected cells; host or cells: HEK293T

human KOR (β-arrestin 2) [34] = biological target: T35, human KOR (β-arrestin 2) (Homo sapiens, UniProt P41145, K200A); test: cell-based; details: HEK-293T
T35 construct: expressed in transfected cells; host or cells: HEK293T

human KOR (β-arrestin 2) [35] = biological target: T36, human KOR (β-arrestin 2) (Homo sapiens, UniProt P41145, R274A); test: cell-based; details: HEK-293T
T36 construct: expressed in transfected cells; host or cells: HEK293T

human KOR (β-arrestin 2) [36] = biological target: T37, human KOR (β-arrestin 2) (Homo sapiens, UniProt P41145, Q115N); test: cell-based; details: HEK-293T
T37 construct: expressed in transfected cells; host or cells: HEK293T
T37 sequence (P41145 whole entry Q115N): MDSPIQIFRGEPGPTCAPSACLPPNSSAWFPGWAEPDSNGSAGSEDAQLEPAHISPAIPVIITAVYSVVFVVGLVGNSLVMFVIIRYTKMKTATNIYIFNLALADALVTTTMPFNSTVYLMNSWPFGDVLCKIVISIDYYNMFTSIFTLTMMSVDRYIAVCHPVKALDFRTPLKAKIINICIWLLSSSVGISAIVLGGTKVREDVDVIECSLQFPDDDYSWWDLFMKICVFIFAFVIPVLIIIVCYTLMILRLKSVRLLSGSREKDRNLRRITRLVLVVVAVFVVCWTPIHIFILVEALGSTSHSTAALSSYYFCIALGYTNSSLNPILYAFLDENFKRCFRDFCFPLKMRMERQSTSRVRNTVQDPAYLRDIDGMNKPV

T13 sequence (P41145 whole entry): as the sequence (P41145 whole entry Q115N) above, with N115Q counted along it
T22 sequence (P41145 whole entry R271A): as the sequence (P41145 whole entry Q115N) above, with N115Q, R271A counted along it
T24 sequence (P41145 whole entry Y139L): as the sequence (P41145 whole entry Q115N) above, with N115Q, Y139L counted along it
T23 sequence (P41145 whole entry N326A): as the sequence (P41145 whole entry Q115N) above, with N115Q, N326A counted along it
T25 sequence (P41145 whole entry F283A): as the sequence (P41145 whole entry Q115N) above, with N115Q, F283A counted along it
T16 sequence (P41145 whole entry R271A): as the sequence (P41145 whole entry Q115N) above, with N115Q, R271A counted along it
T26 sequence (P41145 whole entry G319L): as the sequence (P41145 whole entry Q115N) above, with N115Q, G319L counted along it
T19 sequence (P41145 whole entry G319L): as the sequence (P41145 whole entry Q115N) above, with N115Q, G319L counted along it
T6 sequence (P41145 whole entry Y320L): as the sequence (P41145 whole entry Q115N) above, with N115Q, Y320L counted along it
T8 sequence (P41145 whole entry Y139L): as the sequence (P41145 whole entry Q115N) above, with N115Q, Y139L counted along it
T2 sequence (P41145 whole entry T94V): as the sequence (P41145 whole entry Q115N) above, with T94V, N115Q counted along it
T32 sequence (P41145 whole entry T94V): as the sequence (P41145 whole entry Q115N) above, with T94V, N115Q counted along it
T27 sequence (P41145 whole entry R257A): as the sequence (P41145 whole entry Q115N) above, with N115Q, R257A counted along it
T9 sequence (P41145 whole entry R257A): as the sequence (P41145 whole entry Q115N) above, with N115Q, R257A counted along it
T30 sequence (P41145 whole entry K227A): as the sequence (P41145 whole entry Q115N) above, with N115Q, K227A counted along it
T12 sequence (P41145 whole entry F114L): as the sequence (P41145 whole entry Q115N) above, with F114L, N115Q counted along it
T33 sequence (P41145 whole entry F114L): as the sequence (P41145 whole entry Q115N) above, with F114L, N115Q counted along it
T15 sequence (P41145 whole entry N326A): as the sequence (P41145 whole entry Q115N) above, with N115Q, N326A counted along it
T18 sequence (P41145 whole entry D155A): as the sequence (P41145 whole entry Q115N) above, with N115Q, D155A counted along it
T29 sequence (P41145 whole entry D155A): as the sequence (P41145 whole entry Q115N) above, with N115Q, D155A counted along it
T10 sequence (P41145 whole entry D266A): as the sequence (P41145 whole entry Q115N) above, with N115Q, D266A counted along it
T7 sequence (P41145 whole entry L253A): as the sequence (P41145 whole entry Q115N) above, with N115Q, L253A counted along it
T1 sequence (P35372 whole entry): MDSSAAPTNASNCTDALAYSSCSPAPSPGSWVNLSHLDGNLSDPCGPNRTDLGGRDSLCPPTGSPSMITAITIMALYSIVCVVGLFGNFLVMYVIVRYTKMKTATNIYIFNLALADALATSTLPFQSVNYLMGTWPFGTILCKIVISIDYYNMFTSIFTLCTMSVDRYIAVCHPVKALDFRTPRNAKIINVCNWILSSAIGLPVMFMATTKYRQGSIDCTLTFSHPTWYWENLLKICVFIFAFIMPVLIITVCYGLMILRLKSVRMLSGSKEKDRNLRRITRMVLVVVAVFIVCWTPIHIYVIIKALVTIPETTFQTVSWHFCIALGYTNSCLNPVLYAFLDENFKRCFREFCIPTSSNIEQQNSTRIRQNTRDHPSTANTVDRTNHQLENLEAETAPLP
T3 sequence (P41145 whole entry K200A): as the sequence (P41145 whole entry Q115N) above, with N115Q, K200A counted along it
T35 sequence (P41145 whole entry K200A): as the sequence (P41145 whole entry Q115N) above, with N115Q, K200A counted along it
T4 sequence (P41145 whole entry Q115N): as the sequence (P41145 whole entry Q115N) above
T20 sequence (P41145 whole entry N141A): as the sequence (P41145 whole entry Q115N) above, with N115Q, N141A counted along it
T14 sequence (P41145 whole entry D105A): as the sequence (P41145 whole entry Q115N) above, with D105A, N115Q counted along it
T11 sequence (P41145 whole entry R170A): as the sequence (P41145 whole entry Q115N) above, with N115Q, R170A counted along it
T34 sequence (P41145 whole entry R170A): as the sequence (P41145 whole entry Q115N) above, with N115Q, R170A counted along it
T36 sequence (P41145 whole entry R274A): as the sequence (P41145 whole entry Q115N) above, with N115Q, R274A counted along it
T21 sequence (P41145 whole entry R274A): as the sequence (P41145 whole entry Q115N) above, with N115Q, R274A counted along it
T17 sequence (P41145 whole entry D334A): as the sequence (P41145 whole entry Q115N) above, with N115Q, D334A counted along it
T5 sequence (P41145 whole entry F283A): as the sequence (P41145 whole entry Q115N) above, with N115Q, F283A counted along it
T31 sequence (P41145 whole entry F283A): as the sequence (P41145 whole entry Q115N) above, with N115Q, F283A counted along it
T28 sequence (P41145 whole entry E297A): as the sequence (P41145 whole entry Q115N) above, with N115Q, E297A counted along it

## CN(C(=O)/C=C/c1ccoc1)[C@@H]1CC[C@@]2(O)[C@H]3Cc4ccc(O)c5c4[C@@]2(CCN3CC2CC2)[C@H]1O5 [Nalfurafine, nalfurafine]
MOR
  EC50: 5.13 nM
Human KOR (Gi1) [1]
  Emax: 99.2%
Human KOR (Gi1) [2]
  Emax: 96.1%
Human KOR (Gi1) [3]
  Emax: 77.3%
Human KOR (Gi1) [4]
  Emax: 77.6%
Human KOR (Gi1) [5]
  Emax: 76.3%
Human KOR (Gi1) [6]
  Emax: 106%
Human KOR (Gi1) [7]
  Emax: 96.7%
Human KOR (Gi1) [8]
  Emax: 99.5%
Human KOR (Gi1) [9]
  Emax: 106%
Human KOR (Gi1) [10]
  Emax: 58.7%
Human KOR (Gi1) [11]
  Emax: 65.5%
Human KOR (Gi1) [12]
  Emax%: 101.1% and 100%
Human KOR (Gi1) [12]; HEK-293T
  Emax: 85 ± 7%
Human KOR (Gi1) [13]
  Emax: 94.3%
Human KOR (Gi1) [14]
  Emax: 108%
Human KOR (Gi1) [15]
  Emax: 105%
Human KOR (Gi1) [16]
  Emax: 77.5%
Human KOR (Gi1) [17]
  Emax: 79.1%
Human KOR (Gi1) [18]
  Emax: 116%
Human KOR (Gi1) [19]
  Emax: 101%
Human KOR (Gi1) [20]
  Emax: 100%
KOR
  ΔΔLog τ/KA (95% confidence interval): 0.78 (0.65 to 0.91)
Human KOR (Gz) [21]
  FC vs wild type: 398
Human KOR (Gz) [21]; HEK-293T
  Emax: 110%
Human KOR (Gz) [22]
  FC vs wild type: 69
Human KOR (Gz) [22]; HEK-293T
  Emax: 96.9%
Human KOR (Gz) [23]
  FC vs wild type: 4
Human KOR (Gz) [23]; HEK-293T
  Emax: 103%
Human KOR (Gz) [24]
  FC vs wild type: 44
Human KOR (Gz) [24]; HEK-293T
  Emax: 106%
Human KOR (β-arrestin 2) [25]
  Emax: 71%
Human KOR (β-arrestin 2) [26]
  Emax: 103%
Human KOR (β-arrestin 2) [27]
  Emax: 101%
Human KOR (β-arrestin 2) [28]
  Emax: 90.2%
Human KOR (β-arrestin 2) [29]
  Emax: 97.5%
Human KOR (β-arrestin 2) [30]
  Emax: 100%
Human KOR (β-arrestin 2) [31]
  Emax: 87.5%
Human KOR (β-arrestin 2) [32]
  Emax: 48.7%
Human KOR (β-arrestin 2) [33]
  Emax: 100 ± 8.6%
Human KOR (β-arrestin 2) [34]
  Emax: 83.2%
Human KOR (β-arrestin 2) [35]
  Emax: 83.3%
Human KOR (β-arrestin 2) [36]
  Emax: 67%

Source: paper PMC10008561 (Nature Communications, 2023)
